Assay results: patent US7704993B2, “Benzazepine derivatives and methods of prophylaxis or treatment of 5ht2c receptor associated diseases” (Arena Pharmaceuticals, Inc., priority 2003, dated 2010)

Experiments:
human 5HT2C receptor = molecular target: T1, human 5HT2C receptor (Homo sapiens, UniProt P28335); assay: Intracellular IP3 Accumulation Assay; format: cell-based; details: HEK293 cells transfected with human 5HT2C receptor cDNA; read-out: 5HT2C (IC50) IP Accumulation Assay
T1 construct: expressed in transfected cells; host or cells: HEK293 cells, transient transfection with lipofectamine
T1 sequence (P28335 33-458): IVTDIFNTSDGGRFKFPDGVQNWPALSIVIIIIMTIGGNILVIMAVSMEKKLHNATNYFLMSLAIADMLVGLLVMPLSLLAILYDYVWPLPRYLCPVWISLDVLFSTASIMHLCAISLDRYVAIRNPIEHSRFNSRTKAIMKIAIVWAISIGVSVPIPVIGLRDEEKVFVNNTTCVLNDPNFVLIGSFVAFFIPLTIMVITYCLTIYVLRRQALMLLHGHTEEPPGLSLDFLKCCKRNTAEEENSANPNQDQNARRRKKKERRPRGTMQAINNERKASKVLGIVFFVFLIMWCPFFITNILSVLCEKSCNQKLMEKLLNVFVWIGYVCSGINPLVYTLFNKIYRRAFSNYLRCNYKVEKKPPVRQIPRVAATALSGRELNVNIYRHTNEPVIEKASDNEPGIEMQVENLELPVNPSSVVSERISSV
Protocol: Intracellular IP3 Accumulation Assay:
HEK293 cells were transfected in 15 cm sterile dishes with or without (control) 16 ug of human 5HT2C receptor cDNA [for example see, Saltzman, A. G., et al. Biochem. Biophys. Res. Commun. 181, 1469-1478 (1991)] using 25 ul of lipofectamine. Cells were then incubated for 3-4 hours at 37° C./5% CO2 and then transfection media was removed and replaced with 100 ul of DMEM. Cells were then plated onto 100 cm sterile dishes. The next day cells were plated into 96 well PDL microtiter plates at a density of 55 K/0.2 ml. Six hours latter, media was exchanged with [^3H]inositol (0.25 uCi/well) in inositol free DMEM and plates were incubated at 37° C./5% CO2 overnight. The next day, wells were aspirated and 200 ul of DMEM containing test compound, 10 uM pargyline, and 10 mM LiCl was added to appropriate wells. Plates were then incubated at 37° C./5% CO2 for three hours followed aspiration and by addition of fresh ice cold stop solution (1M KOH, 19 mM Na-borate, 3.8 mM EDTA) to each well. Plates were kept on ice for 5-10 min and the wells were neutralized by addition of 200 ul of fresh ice cold neutralization solution (7.5% HCl). Plates were then frozen until further processing is desired. The lysate was then transferred into 1.5 ml Eppendorf tubes and 1 ml of chloroform/methanol (1:2) was added/tube. […]

[1] = test system: amyloid precursor protein (APPs) secretion / Aβ production; details: guinea pigs, repeat administration; cited from earlier work

## CC1CNCCc2c(Cl)cc(Cl)cc21 (racemic) [Compound 1, (R,S) 6,8-Dichloro-1-methyl-2,3,4,5-tetrahydro-1H-3-benzazepine]
Human 5HT2C receptor
  IC50: 11.7 nM

## C[C@H](N)Cc1cccc(C(F)(F)F)c1 [dexnorfenfluramine (DEXNOR), dexnorfenfluramine]
[1]
  amyloid precursor protein (APPs) secretion: stimulated
  levels of Aβ production in vivo: reducing

## CC1CNCCc2ccc(Cl)c(F)c21 (racemic) [Compound 3, (R,S) 8-Chloro-9-fluoro-1-methyl-2,3,4,5-tetrahydro-1H-3-benzazepine]
Human 5HT2C receptor
  IC50: 24.5 nM
